Publication PMC8494430, “Development of a fluorogenic ADAMTS-7 substrate” (Journal of Enzyme Inhibition and Medicinal Chemistry, 2021)

Target: T1, ADAMTS-8 (Homo sapiens, UniProt Q9UP79)
T1 construct: made in house; host or cells: HEK293T
T1 sequence (Q9UP79 214-889): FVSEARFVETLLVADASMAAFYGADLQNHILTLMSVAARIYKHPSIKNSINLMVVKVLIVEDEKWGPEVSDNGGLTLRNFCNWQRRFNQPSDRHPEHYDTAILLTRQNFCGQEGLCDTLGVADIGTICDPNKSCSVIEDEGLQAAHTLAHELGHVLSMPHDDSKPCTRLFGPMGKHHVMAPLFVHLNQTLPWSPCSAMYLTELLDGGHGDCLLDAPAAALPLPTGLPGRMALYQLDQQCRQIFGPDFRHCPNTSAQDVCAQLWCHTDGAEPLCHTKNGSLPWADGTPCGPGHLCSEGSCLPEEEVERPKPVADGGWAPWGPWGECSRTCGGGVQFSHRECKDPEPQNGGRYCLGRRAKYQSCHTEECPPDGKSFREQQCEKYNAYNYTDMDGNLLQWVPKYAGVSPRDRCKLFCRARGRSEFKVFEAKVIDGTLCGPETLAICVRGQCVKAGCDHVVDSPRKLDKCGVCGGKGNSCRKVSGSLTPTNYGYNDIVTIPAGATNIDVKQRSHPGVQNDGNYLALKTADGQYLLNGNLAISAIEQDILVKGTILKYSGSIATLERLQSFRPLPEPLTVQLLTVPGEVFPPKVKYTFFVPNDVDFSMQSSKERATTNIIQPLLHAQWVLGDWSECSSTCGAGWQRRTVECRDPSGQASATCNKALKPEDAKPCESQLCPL
Assay: Cleavage of ATS7FP7 by ADAMTS-8
Format: biochemical
Conditions: ADAMTS-8 10 nM, ATS7FP7 40 μM
Method: All enzyme assays were conducted in TNC-B buffer (50 mM Tris- HCl, pH 7.5, 150 mM NaCl, 10 mM CaCl2, and 0.02% NaN3) at 37 °C in 384 well plates (Cat. No: 784900, Greiner Bio-One, Austria). To avoid the formation of inhibitor or peptide aggregates, the detergent Brij-35 (0.05%) was added to TNC-B[13]. For inhibition studies, stock solutions of chemical compounds were prepared in dimethyl sulfoxide (DMSO) (10 mM). These were further diluted at different concentrations in TNC-B and incubated with ADAMTS-1, ADAMTS-4, ADAMTS-5, ADAMTS-7 or ADAMTS-8 (10 nM) for 1 h at 37 °C. Blank samples were prepared using buffer only and the rate of cleavage for blank reactions was subtracted from the rates measured in the presence of enzyme. Upon addition of the indicated ADAMTS-7 FRET substrates (40 µM), the fluorescence was measured immediately using a FLUOstar Omega microplate reader (BMG Labtech, Germany) with an excitation filter wavelength of 485 nm and an emission filter wavelength of 520 nm.
Supplementary Figure 6: Cleavage of ATS7FP7 by members of the ADAMTS family. A) ATS7FP7 (40 μM) was incubated either with ADAMTS-1, -4, -5, -7, or -8 (10 nM). Fluorescence was detected (λex = 485 nm, λem = 520 nm) for 8 h at 37°C and reported as relative fluorescence units (RFU). The data are presented as average ± SEM (n=3) and were fitted with a linear regression. […]

With “Glu-Ala-Ala-Ala-Arg↓Ala-Glu↓Ala-Ala-Ala-Lys [ATS7FP7]” as the substance, how does the “cleavage by ADAMTS-8” value read?
The value was “neither ADAMTS-1 nor ADAMTS-8 were able to cleave ATS7FP7”.
